This test addresses T1, histamine-3 receptors (H3 receptor) (Rattus norvegicus, UniProt Q9QYN8).
T1 construct: from tissue; host or cells: male Sprague-Dawley rat brain cortex membranes
In words: (3H)-N-α-methylhistamine binding to rat cortical membranes. The settings on record: male Sprague-Dawley rat brain cortical membranes; (3H)-N-α-methylhistamine ~0.6 nM; 30 minutes at 25° C.; Cheng-Prusoff equation; read-out: Ki. Here is the method:
Briefly, male Sprague-Dawley rat brain cortices were homogenized (1 g tissue/10 mL buffer) in 50 mM Tris-HCl/5 mM EDTA containing protease inhibitor cocktail (Calbiochem) using a polytron set at 20,500 rpm. Homogenates were centrifuged for 20 minutes at 40,000×g. The supernatant was decanted, and pellets were weighed. The pellet was resuspended by polytron homogenization in 40 mL 50 mM Tris-HCl/5 mM EDTA with protease inhibitors and centrifuged for 20 minutes at 40,000×g. […] Rat cortical membranes (12 mg wet weight/tube) were incubated with (^3H)-N-α-methylhistamine (˜0.6 nM) with or without H3 receptor antagonists in a total incubation volume of 0.5 mL of 50 mM Tris-HCl/5 mM EDTA (pH 7.7). Test compounds were dissolved in DMSO to provide a 20 mM solution, serially diluted and then added to the incubation mixtures prior to initiating the incubation assay by addition of the membranes. Thioperamide (3 μM) was used to determine nonspecific binding. Binding incubations were conducted for 30 minutes at 25° C. and terminated by addition of 2 mL of ice cold 50 mM Tris-HCl (pH 7.7) and filtration through 0.3% polyethylenimine-soaked Unifilter plates (Packard). These filters were washed 4 additional times with 2 mL of ice-cold 50 mM Tris-HCl and dried for 1 hour. Radioactivity was determined using liquid scintillation counting techniques. Results were analyzed by Hill transformation and Ki values were determined using the Cheng-Prusoff equation.
T1 sequence (Q9QYN8 whole entry): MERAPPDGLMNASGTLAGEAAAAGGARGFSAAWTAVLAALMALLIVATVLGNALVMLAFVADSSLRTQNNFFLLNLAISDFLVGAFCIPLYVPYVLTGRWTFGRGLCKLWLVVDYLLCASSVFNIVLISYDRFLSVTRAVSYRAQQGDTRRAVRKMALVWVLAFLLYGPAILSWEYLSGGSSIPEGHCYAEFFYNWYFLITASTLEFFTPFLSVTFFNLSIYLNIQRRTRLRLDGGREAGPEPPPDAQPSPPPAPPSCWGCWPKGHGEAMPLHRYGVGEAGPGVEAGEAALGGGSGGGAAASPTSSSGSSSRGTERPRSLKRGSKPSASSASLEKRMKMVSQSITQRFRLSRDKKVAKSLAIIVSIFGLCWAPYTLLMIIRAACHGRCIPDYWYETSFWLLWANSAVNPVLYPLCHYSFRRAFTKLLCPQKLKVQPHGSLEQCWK
On to `CN(CCc1cc2cc(-c3ccc(C#N)cc3)ccc2o1)C(C)(C)C` [Example 18, 4-(2-{2-[tert-butyl (methyl)amino]ethyl}-1-benzofuran-5-yl)benzonitrile], for which the Ki was found to be 0.0605 µM. The result for `O=C(c1ccc(-c2ccc3oc(CCN4CC[C@@H](O)C4)cc3c2)cc1)N1CCOCC1` [Example 27, (3R)-1-(2-{5-[4-(4-morpholinylcarbonyl)phenyl]-1-benzofuran-2-yl}ethyl)-3-pyrrolidinol] reads 0.0554 µM; that for `CC1CCN(CCc2cc3cc(-c4ccc(C(=O)N5CCOCC5)cn4)ccc3o2)CC1` [Example 52, 4-[(6-{2-[2-(4-methyl-1-piperidinyl)ethyl]-1-benzofuran-5-yl}-3-pyridinyl)carbonyl]morpholine], 0.162 µM. The result for “4-(2-{2-[(2R,6S)-2,6-dimethylpiperidinyl]ethyl}-1-benzofuran-5-yl)benzonitrile [Example 11]” reads 0.0193 µM; that for “4-[4-(2-{2-[(2R,6S)-2,6-dimethylpiperidinyl]ethyl}-1-benzofuran-5-yl)benzoyl]morpholine [Example 29]”, 0.00846 µM. For the compound `CCN(CC)CCc1cc2cc(-c3ccc(C(=O)N4CCOCC4)cc3)ccc2o1` [Example 25, N,N-diethyl-N-(2-{5-[4-(4-morpholinylcarbonyl)phenyl]-1-benzofuran-2-yl}ethyl)amine], the inhibitory constant (Ki) came out at 0.0144 µM. For `CCCN(CC)CCc1cc2cc(-c3ccc(C(=O)N4CCOCC4)cn3)ccc2o1` [Example 59, N-ethyl-N-propyl-N-(2-{5-[5-(4-morpholinylcarbonyl)-2-pyridinyl]-1-benzofuran-2-yl}ethyl)amine] the value was 0.0791 µM. The result for `CCN(CC)CCc1c(C)c2cc(-c3ccc(C#N)cc3)ccc2oc1=O` [Example 43, 4-{3-[2-(diethylamino)ethyl]-4-methyl-2-oxo-2H-chromen-6-yl}benzonitrile] reads 0.0146 µM; that for `CN(C)CCc1cc2cc(-c3ccc(C(=O)N4CCOCC4)cc3)ccc2o1` [Example 39, N,N-dimethyl-N-(2-{5-[4-(4-morpholinylcarbonyl)phenyl]-1-benzofuran-2-yl}ethyl)amine], 0.148 µM; that for `C[C@@H]1CCCN1CCc1cc2cc(C(=O)c3ccc(N(C)C)cc3)ccc2o1` [Example 79, [4-(dimethylamino)phenyl](2-{2-[(2R)-2-methyl-1-pyrrolidinyl]ethyl}-1-benzofuran-5-yl)methanone], 0.0038 µM. The result for `CC(C)N(C)CCc1cc2cc(-c3ccc(C(=O)N4CCOCC4)cn3)ccc2o1` [Example 56, N-isopropyl-N-methyl-N-(2-{5-[5-(4-morpholinylcarbonyl)-2-pyridinyl]-1-benzofuran-2-yl}ethyl)amine] reads 0.105 µM; that for `COc1cccc(C(=O)c2ccc3oc(CCN4CCC[C@H]4C)cc3c2)c1` [Example 83, (3-methoxyphenyl)(2-{2-[(2R)-2-methyl-1-pyrrolidinyl]ethyl}-1-benzofuran-5-yl)methanone], 0.0011 µM; that for `CC1CCCCN1CCc1cc2cc(-c3ccc(C(=O)N4CCOCC4)cc3)ccc2o1` (stereo not drawn) [Example 26, 4-(4-{2-[2-(2-methyl1--piperidinyl)ethyl]-1-benzofuran-5-yl}benzoyl)morpholine], 0.0272 µM. For the compound `O=C(c1ccc(-c2ccc3oc(CCN4CCOCC4)cc3c2)cc1)N1CCOCC1` [Example 32, 4-(4-{2-[2-(4-morpholine)ethyl]-1-benzofuran-5-yl}benzoyl)morpholine], the inhibitory constant (Ki) came out at 0.265 µM. The result for `C[C@@H]1CCCN1CCc1cc2cc(C(=O)c3ccccc3)ccc2o1` [Example 84, (2-{2-[(2R)-2-methyl-1-pyrrolidinyl]ethyl}-1-benzofuran-5-yl)(phenyl)methanone] reads 0.0028 µM; that for `O=C(c1ccc(-c2ccc3oc(CCN4CCCCC4)cc3c2)nc1)N1CCOCC1` [Example 46, 4-[(6-{2-[2-(1-piperidinyl)ethyl]-1-benzofuran-5-yl}-3-pyridinyl)carbonyl]morpholine], 0.0185 µM; that for `Cc1cc(C(=O)c2ccc3oc(CCN4CCC[C@H]4C)cc3c2)ccc1Cl` [Example 77, (4-chloro-3-methylphenyl)(2-{2-[(2R)-2-methyl-1-pyrrolidinyl]ethyl}-1-benzofuran-5-yl)methanone], 0.006 µM.

On to `CCN(CC)CCc1cc2cc(-c3ccc(C(=O)N4CCOCC4)cn3)ccc2o1` [Example 47, 4-[(6-{2-[2-(N,N-diethyl)ethyl]-1-benzofuran-5-yl}-3-pyridinyl)carbonyl]morpholine], for which the inhibition constant Ki stood at 0.0598 µM.

On to `C[C@@H]1CCCN1CCc1cc2cc(C(=O)C3CC3)ccc2o1` [Example 75, cyclopropyl(2-{2-[(2R)-2-methyl-1-pyrrolidinyl]ethyl}-1-benzofuran-5-yl)methanone], for which the inhibition constant Ki worked out at 0.0099 µM. The result for `N#Cc1ccc(-c2ccc3oc(CCN4CC[C@@H](O)C4)cc3c2)cc1` [Example 7, 4-(2-{2-[(3R)-3-hydroxypyrrolidinyl]ethyl}-1-benzofuran-5-yl)benzonitrile] reads 0.0949 µM. The result for `CCCN(CC)CCc1cc2cc(-c3ccc(C#N)cc3)ccc2o1` [Example 22, 4-(2-{2-[ethyl(propyl)amino]ethyl}-1-benzofuran-5-yl)benzonitrile] reads 0.0692 µM; that for `CCN(CC)CCc1cc2cc(-c3ccc(C#N)cc3)ccc2o1` [Example 5, 4-{2-[2-(diethylamino)ethyl]-1-benzofuran-5-yl}benzonitrile], 0.0494 µM; that for `CC(C)N(C)CCc1cc2cc(-c3ccc(C#N)cc3)ccc2o1` [Example 19, 4-(2-{2-[isopropyl(methyl)amino]ethyl}-1-benzofuran-5-yl)benzonitrile], 0.0777 µM. The result for `C[C@@H]1CC[C@@H](C)N1CCc1cc2cc(-c3ccc(C#N)cc3)ccc2o1` [Example 12, 4-(2-{2-[(2R,5R)-2,5-dimethylpyrrolidinyl]ethyl}-1-benzofuran-5-yl)benzonitrile] reads 0.0384 µM.

Values taken from US20020183309A1, “Novel amines as histamine-3 receptor ligands and their therapeutic applications” (priority 2001, published 2002).
